From the supplement of paper PMC10290057 come the findings set out here.

Structures are written as SMILES. Structures can show the parent of a compound that is named as a salt.

The test system of assay [1] is HCT116. Nature of the assay: efficacy (fitted maximal change in viability relative to DMSO control); higher = less cytotoxic (negative = loss of viability). The following applies: 48 h.
For assay [2], the system named is HCT116. Nature of the assay: AC50 cell viability (CellTiter-Glo); higher = less potent. The following applies: 48 h.
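Throughout, for AC50 cell viability (CellTiter-Glo): HCT116 colorectal carcinoma cells screened at five concentrations per compound, luminescent viability scaled between DMSO wells and empty wells on each plate, curves fitted per compound.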
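Throughout, for efficacy (fitted maximal change in viability relative to DMSO control): Luminescence-based viability readout, five doses per compound, normalized against on-plate DMSO and empty-well controls, followed by dose-response curve fitting for every drug.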

Regarding `CCc1nc(-c2cccc(C)c2)c(-c2ccnc(NC(=O)c3ccccc3)c2)s1` [TAK-715], the efficacy in assay [1] is -72.7%. In assay [2], the AC50 cell viability stood at 26.3 µM.
The corresponding values for `CC[S+](=O)([O-])c1cccc(-c2cc(C(=O)NC3CCN(C)CC3)c(C)c3[nH]c4ncc(C)cc4c23)c1` [TAK-901] are -76.3% and 0.417 µM.
As to `CC1=N[NH]C=C1C2=CC\3=C(S2)C(=O)NC(=N3)\[C@@H]4CC5CCN4CC5` [TAK-931], the efficacy in assay [1] is -65.2%. This compound also came in with an AC50 cell viability in assay [2] of 2.63 µM.
On to `COc1cc(C(=O)NC2CCN(C)CC2)c(F)cc1Nc1ncc2c(n1)N(C1CCCC1)CC(F)(F)C(=O)N2C` [TAK-960], for which the efficacy in assay [1] is -120%. Besides, the AC50 cell viability in assay [2] is 1.32 µM.
The corresponding values for `CCc1cc(C(N)=O)ccc1-n1nc(C(C)C)c2c(-n3cnc(-c4cnn(C)c4)c3)ccnc21` [TAS-116] are -65.3% and 1.05 µM.
Take `Oc1ccc(-c2ccc(-c3cc(Nc4cccc(CNC5CC5)c4)[nH]n3)cc2)c(O)c1` [TCS-2312]: in assay [1], the efficacy is -77.1%. In assay [2], this compound came in with an AC50 cell viability of 3.32 µM.
`N#Cc1c(NC(=O)c2cccc3ccccc23)sc2c1CCCC2` [TCS-JNK-5a]: the efficacy in assay [1] is -61.6%. In addition, in assay [2], the AC50 cell viability worked out at 0.417 µM.
In the case of `CCN1/C(=C/C(C)=O)Sc2ccc(OC)cc21` [TG-003], in assay [1], the efficacy is -41.4%. Moreover, in assay [2], the AC50 cell viability worked out at 14.8 µM.
The corresponding values for `Cc1cnc(Nc2ccc(CN3CCOCC3)cc2)nc1Nc1cccc([S+](=O)([O-])NC(C)(C)C)c1` [TG-46] are -97.9% and 2.63 µM.
For `Cc1cnc(Nc2cccc(CN3CCOCC3)c2)nc1Nc1cccc([S+](=O)([O-])NC(C)(C)C)c1` [TG-89] the same measures were -35.5% and 1.66 µM.
With `CC(NC1=CC=CC=C1)C\2=C\C(=C/N3C(=O)\C=C(/N=C23)N4CCOCC4)C` (stereo not given) [TGX-221], the efficacy in assay [1] was -44.2%. This compound also had an AC50 cell viability in assay [2] of 18.6 µM.
The corresponding values for `CN(C)C/C=C/C(=O)Nc1ccc(C(=O)Nc2cccc(Nc3ncc(Cl)c(-c4c[nH]c5ccccc45)n3)c2)cc1` [THZ1] are -67.4% and 0.0661 µM.
Take `CN(C)C/C=C/C(=O)Nc1ccc(C(=O)N2CCC[C@@H](Nc3ncc(Cl)c(-c4c[nH]c5ccccc45)n3)C2)cc1` [THZ531]: the efficacy in assay [1] was -74.2%. Moreover, the AC50 cell viability in assay [2] is 0.132 µM.
As for `CN(C)C/C=C/C(=O)Nc1cccc(C(=O)Nc2cccc(Nc3ncc(Cl)c(-c4c[nH]c5ccccc45)n3)c2)c1` [THZ-2], in assay [1], the efficacy was -78.8%. This compound returned an AC50 cell viability in assay [2] of 0.0934 µM.
Consider `CC1=CC=CC=C1CN2C(=O)C/3=C(/CCN(CC4=CC=CC=C4)C3)N\5CC\N=C25` [TIC-10], for which the efficacy in assay [1] is -62.1%. Further, in assay [2], the AC50 cell viability worked out at 2.95 µM.
For `CN1CCN(Cc2ccc(Nc3ncc(Cl)/c(=N\c4ccccc4[S+](=O)([O-])N(C)C)[nH]3)cc2)CC1` [TP-0903] the same measures were -65.8% and 0.027 µM.
The corresponding values for `CC(C)(O)[C@H]1CC[C@H](Nc2ccc3ncc(-c4cccc(C(F)(F)F)c4)n3n2)CC1` [TP-3654] are -43.7% and 1.66 µM.
For `NC(=O)Nc1sc(-c2ccc(F)cc2)cc1C(N)=O` [TPCA-1] the same measures were -74.4% and 14.8 µM.
Turning to `Cc1ccc([S+](=O)([O-])N[C@@H](Cc2ccccc2)C(=O)CCl)cc1` [TPCK], in assay [1], the efficacy was -77.8%. The same compound gave an AC50 cell viability in assay [2] of 18.6 µM.
The corresponding values for `CCC(=O)N1CCOc2c(cc(-c3cc(OC)cc(OC)c3)cc2C(=O)N[C@H]2CCCN(C)C2)C1` [TPOP-146] are -79.1% and 20.9 µM.
For `C[C@H]1CNC(=O)c2cnn3ccc(nc23)N[C@H](C)c2cc(F)ccc2O1` [TPX-0005] the same measures were -87.5% and 2.35 µM.
Take `Clc1ccccc1C(c1ccccc1)(c1ccccc1)n1cccn1` [TRAM-34]: the efficacy in assay [1] was -41.5%. In assay [2], this compound gave an AC50 cell viability of 18.6 µM.
For `CC(C)c1ccccc1Cc1cc(C(=O)Nc2ccc([S+](=O)([O-])c3ccccc3C(C)(C)C)cc2)c(O)c(O)c1O` [TW-37] the same measures were -90.9% and 20.9 µM.
For `Nc1cccc(-c2cc3c(Oc4cccc(O)c4)ncnc3[nH]2)c1` [TWS-119] the same measures were -90.2% and 11.8 µM.
The corresponding values for `CC(=O)Nc1ccc(C(=O)Nc2ccccc2N)cc1` [Tacedinaline] are -69.7% and 5.9 µM.
`CCC(CC)C(c1ccc(Nc2nc3ccccc3s2)cc1)n1cncn1` (stereo not drawn) [Talarozole (R enantiomer)]: in assay [1], the efficacy was -96.4%. This compound yielded an AC50 cell viability in assay [2] of 20.9 µM.
Regarding `CC/C(=C(\c1ccccc1)c1ccc(OCCN(C)C)cc1)c1ccccc1` [Tamoxifen], the efficacy in assay [1] was -87.8%. This compound also showed an AC50 cell viability in assay [2] of 15.2 µM.
As to `COc1cc2c(N3CCN(C(=O)Nc4ccc(OC(C)C)cc4)CC3)ncnc2cc1OCCCN1CCCCC1` [Tandutinib], in assay [1], the efficacy was -76%. The same compound registered an AC50 cell viability in assay [2] of 18.6 µM.
The corresponding values for `C=CCNC1=C2C[C@@H](C)C[C@H](OC)[C@H](O)[C@@H](C)/C=C(\C)[C@H](OC(N)=O)[C@@H](OC)/C=C\C=C(/C)C(=O)NC(=CC1=O)C2=O` [Tanespimycin] are -65.7% and 3.72 µM.
On to `Cc1nc(-c2cn3c(n2)-c2ccc(-c4cnn(C(C)(C)C(N)=O)c4)cc2OCC3)n(C(C)C)n1` [Taselisib (GDC-0032)], for which the efficacy in assay [1] is -77.1%. This compound also returned an AC50 cell viability in assay [2] of 5.9 µM.
Consider `CCCCCNC(=N)N/N=C/c1c[nH]c2ccc(OC)cc12` [Tegaserod maleate], for which the efficacy in assay [1] is -92.3%. The compound further had an AC50 cell viability in assay [2] of 7.42 µM.
For `CNC(=O)c1cc(COc2nnc(Nc3ccc(Cl)cc3)c3ccoc23)ccn1` [Telatinib] the same measures were -70.3% and 20.9 µM.
Take `COc1cc([C@@H]2c3cc4c(cc3[C@@H](O[C@@H]3O[C@@H]5CO[C@@H](c6cccs6)O[C@H]5[C@H](O)[C@H]3O)[C@H]3COC(=O)[C@H]23)OCO4)cc(OC)c1O` [Teniposide]: the efficacy in assay [1] was -104%. For the same compound, in assay [2], the AC50 cell viability was 4.17 µM.
The corresponding values for `COc1ccc(C[C@@H](C)[C@@H](C)Cc2ccc(OC)c(OC)c2)cc1OC` [Terameprocol] are -51.5% and 1.05 µM.
The corresponding values for `COc1cc2c(Nc3ccc(Cl)c(Cl)c3F)ncnc2cc1OC[C@@H]1C[C@@H]2CN(C)C[C@@H]2C1` [Tesevatinib] are -119% and 10.5 µM.
The corresponding values for `C/C=C(/C)C(=O)O[C@H]1C(C)=C2[C@H]([C@@H]1OC(=O)CCCCCCC)[C@@](C)(OC(C)=O)C[C@H](OC(=O)CCC)[C@@]1(O)[C@H]2OC(=O)[C@@]1(C)O` [Thapsigargin] are -93.2% and 0.0525 µM.
Regarding `O=C(NCc1ccccc1)c1csc(Nc2ccncn2)n1` [Thiazovivin], in assay [1], the efficacy was -84%. The compound also displayed an AC50 cell viability in assay [2] of 20.9 µM.
As to `COc1ccc2cc(-c3[nH]c(-c4ccc([S+](C)[O-])cc4)nc3-c3ccncc3)ccc2c1` (stereo not given) [Tie-2 kinase Inhibitor], the efficacy in assay [1] was -89.1%. In assay [2], the AC50 cell viability is 23.5 µM.
With `Cn1c(CCCCCCC(=O)NO)nc2cc(N(CCCl)CCCl)ccc21` [Tinostamustine], the efficacy in assay [1] was -84.7%. In assay [2], this compound registered an AC50 cell viability of 2.95 µM.
For `Clc1ccc(C(Cn2ccnc2)OCc2ccsc2Cl)c(Cl)c1` (stereo not given) [Tioconazole] the same measures were -84.3% and 18.6 µM.
For `NC/1=N/C2=C([NH]C=N2)C(=S)N1` [Tioguanine] the same measures were -85.8% and 0.742 µM.
With `C[N]1C=NC=C1C(N)(C2=CC=C(Cl)C=C2)C3=CC\4=C(C=C3)N(C)C(=O)\C=C4C5=CC(=CC=C5)Cl` (stereo not given) [Tipifarnib,Freebase], the efficacy in assay [1] was -120%. The same compound came in with an AC50 cell viability in assay [2] of 20.9 µM.
For `C[N]1C=NC=C1[C@@](N)(C2=CC=C(Cl)C=C2)C3=CC=C4N(C)C(=O)\C=C(\C5=CC=CC(=C5)Cl)C4=C3` [Tipifarnib] the same measures were -107% and 9.34 µM.
Take `Nc1n[n+]([O-])c2ccccc2[n+]1[O-]` [Tirapazamine]: in assay [1], the efficacy is -30.4%. In assay [2], the AC50 cell viability turned out to be 13.2 µM.
For `O=C1NC(=O)[C@@H](c2c[nH]c3ccccc23)[C@H]1c1cn2c3c(cccc13)CCC2` [Tivantinib (ARQ 197)] the same measures were -62.9% and 0.934 µM.
The corresponding values for `COc1cc2nccc(Oc3ccc(NC(=O)Nc4cc(C)on4)c(Cl)c3)c2cc1OC` [Tivozanib (AV-951)] are -80.3% and 11.8 µM.
The corresponding values for `Cc1[nH]c(/C=C2\C(=O)Nc3ccc(F)cc32)c(C)c1C(=O)NCCN1CCCC1` [Toceranib] are -95.7% and 8.11 µM.
Turning to `CC[C@@]1(O)C(=O)OCc2c1cc1n(c2=O)Cc2cc3c(CN(C)C)c(O)ccc3nc2-1.Cl` [Topotecan hydrochloride], the efficacy in assay [1] was -93%. Also, the AC50 cell viability in assay [2] was 0.59 µM.
Take `CCOC(=O)N1c2ccc(C(F)(F)F)cc2[C@@H](N(Cc2cc(C(F)(F)F)cc(C(F)(F)F)c2)C(=O)OC)C[C@H]1CC` [Torcetrapib]: the efficacy in assay [1] was -45.4%. For the same compound, in assay [2], the AC50 cell viability is 8.33 µM.
On to `CN(C)CCOc1ccc(/C(=C(/CCCl)c2ccccc2)c2ccccc2)cc1` [Toremifene citrate], for which the efficacy in assay [1] is -99.7%. Also, the AC50 cell viability in assay [2] was determined as 20.9 µM.
